Consider 14 molecules from patent US20240262830A1, “IRE1A MODULATORS AND USES THEREOF” (Nimbus Iaso, Inc., priority 2020, published 2024).

Where only a bound is given, the exact number is not on record here.

Assay [1] has as its target T1, truncated human IRE1a WT protein, containing the catalytic part (aa 547-977) (Homo sapiens, UniProt O75460).
T1 construct: containing the catalytic part (aa 547-977); made in house
Nature of the assay: IRE1a biochemical enzyme splice assay. The note with it: 20 nM protein, 500 nM fluorescently quenched IRE1a substrate, 40 min at room temperature; read-out: EnzymeSplice_hIRE1a_IC50 (IC50). The method, then: A truncated human IRE1a WT protein, containing the catalytic part (aa 547-977) was expressed in baculovirus. The purified protein (20 nM) was incubated with a fluorescently quenched IRE1a substrate (500 nM; 5′/6-FAM-CAGUCCGCAGCACUG-BHQ-1/3′) and a titration of inhibitor, starting at 10 μM (final DMSO concentration=1%) for 40 min at room temperature in assay buffer. Reactions were carried out in a final volume of […] in a 384 well assay plate. The reaction was stopped, and the plate was spun for 1 minute at 1000 rpm. The fluorescence intensity of the IRE1a-substrate was measured using an fluorescent plate reader (Ex 485 nm/Em 535 nm, Perkin Elmer Envision).

The subject of a further assay is hIRE1a. As to the kind of experiment: XBP1-Luc cell assay. Format: cell-based. The note with it: Homo sapiens; HEK293-pLVX-XBP1.fluc-IRES-Puro cells, 600 nM Thapsigargin 1 hour, then inhibitor 6 hours; read-out: fLuc_XBP1_hIRE1a_HEK293_IC50 (IC50). The method, then: HEK293-pLVX-XBP1.fluc-IRES-Puro cells (ChemPartner) were collected into DMEM (Invitrogen, 11995-065) with 10% FBS (BI, 04-002-1A). Cells were seeded at 1.5E4 cells/well in BioCoat Poly-D-Lysine Black/Clear flat bottom 96 well plate (Corning, 356640) and incubated overnight at 37° C. and 5% CO2. Cells were treated with 600 nM Thapsigargin (Sigma, T9033) for 1 hour at 37° C. and 5% CO2 prior to inhibitor addition. A titration of inhibitor, starting at 30 μM was added to wells for an additional 6 hours at 37° C. and 5% CO2. 100 μl of Steady-Glo Luciferase assay reagent (Promega, E2550) was added to plate and the plate was shaken for 2 minutes. Signal was read using EnSpire (Perkin Elmer).

T1 sequence (O75460 547-977): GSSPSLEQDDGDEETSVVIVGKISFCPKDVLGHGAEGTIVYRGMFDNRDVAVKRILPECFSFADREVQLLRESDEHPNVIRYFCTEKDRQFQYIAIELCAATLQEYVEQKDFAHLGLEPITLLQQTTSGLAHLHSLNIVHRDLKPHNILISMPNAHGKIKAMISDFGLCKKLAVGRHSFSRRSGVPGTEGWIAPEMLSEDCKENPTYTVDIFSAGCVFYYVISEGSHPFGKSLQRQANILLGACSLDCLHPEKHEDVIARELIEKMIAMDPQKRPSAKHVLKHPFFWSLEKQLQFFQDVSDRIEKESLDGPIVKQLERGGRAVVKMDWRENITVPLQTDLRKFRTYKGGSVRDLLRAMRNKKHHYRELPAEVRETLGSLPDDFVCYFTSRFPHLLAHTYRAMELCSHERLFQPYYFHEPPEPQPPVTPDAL

As usually defined, the IC50 is the midpoint of a concentration-inhibition curve. With `CCc1cc(-c2csc3c(NS(=O)(=O)c4ccccc4Cl)ncnc23)cc2cnc(N[C@H]3CCCNC3)nc12` [Compound I-23, (S)-2-chloro-N-(7-(8-ethyl-2-(piperidin-3-ylamino)quinazolin-6-yl)thieno[3,2-d]pyrimidin-4-yl)benzenesulfonamide], the IC50 in assay [1] was less than 0.1 µM; in the assay with hIRE1a it was 1 to 10 µM.
Regarding `CCc1cc(-c2n[nH]c3c(NS(=O)(=O)c4ccccc4Cl)cccc23)cc2cnc(N[C@H]3CCCNC3)nc12` [Compound I-19, (S)-2-chloro-N-(3-(8-ethyl-2-(piperidin-3-ylamino)quinazolin-6-yl)-1H-indazol-7-yl)benzenesulfonamide], the IC50 in assay [1] was less than 0.1 µM; with hIRE1a, less than 1 µM.
As to `CCc1cc(-c2ccc3c(NC[C@H](O)CC)ncnn23)cc2cnc(N[C@H]3CCCNC3)nc12` [Compound I-20, (R)-1-((7-(8-ethyl-2-(((S)-piperidin-3-yl)amino)quinazolin-6-yl)pyrrolo[2,1-f][1,2,4]triazin-4-yl)amino)butan-2-ol], the IC50 was 0.1 to 1 µM in assay [1] and 1 to 10 µM in the assay with hIRE1a.
The corresponding values for `CCc1cc(-c2ccc3c(NS(=O)(=O)c4ccccc4Cl)ncnn23)cc2cnc(N[C@H]3CCCNC3)nc12` [Compound I-22, (S)-2-chloro-N-(7-(8-ethyl-2-(piperidin-3-ylamino)quinazolin-6-yl)pyrrolo[2,1-f][1,2,4]triazin-4-yl)benzenesulfonamide] are less than 0.1 µM and less than 1 µM.
The corresponding values for `CCc1cc(-c2ccc3c(NS(=O)(=O)c4ccccc4Cl)ncnn23)cc2cnc(NC[C@@H]3CCCCN3)nc12` [Compound I-18, (S)-2-chloro-N-(7-(8-ethyl-2-((piperidin-2-ylmethyl)amino)quinazolin-6-yl)pyrrolo[2,1-f][1,2,4]triazin-4-yl)benzenesulfonamide] are 0.1 to 1 µM and greater than 10 µM.
Turning to `CCc1cc(-c2ccc3c(NS(=O)(=O)c4ccccc4)ncnn23)cc2cnc(N[C@H]3CCCNC3)nc12` [Compound I-26, (S)—N-(7-(8-ethyl-2-(piperidin-3-ylamino)quinazolin-6-yl)pyrrolo[2,1-f][1,2,4]triazin-4-yl)benzenesulfonamide], the IC50 in assay [1] was less than 0.1 µM; with hIRE1a, 1 to 10 µM.
On the same counts, the results for `CCCS(=O)(=O)Nc1ncnn2c(-c3cc(CC)c4nc(N[C@H]5CCCNC5)ncc4c3)ccc12` [Compound I-33, (S)—N-(7-(8-ethyl-2-(piperidin-3-ylamino)quinazolin-6-yl)pyrrolo[2,1-f][1,2,4]triazin-4-yl)propane-1-sulfonamide] are less than 0.1 µM and less than 1 µM.
`CCc1cc(-c2cnc3c(NS(=O)(=O)c4ccccc4Cl)nccn23)cc2cnc(N[C@H]3CCCNC3)nc12` [Compound I-6, (S)-2-chloro-N-(3-(8-ethyl-2-(piperidin-3-ylamino)quinazolin-6-yl)imidazo[1,2-a]pyrazin-8-yl)benzenesulfonamide]: the IC50 in assay [1] is less than 0.1 µM; in the assay with hIRE1a, less than 1 µM.
Turning to `CCc1cc(-c2ccc3c(NS(=O)(=O)C4CCCC4)ncnn23)cc2cnc(N[C@H]3CCCNC3)nc12` [Compound I-15, (S)—N-(7-(8-ethyl-2-(piperidin-3-ylamino)quinazolin-6-yl)pyrrolo[2,1-f][1,2,4]triazin-4-yl)cyclopentanesulfonamide], the IC50 was less than 0.1 µM in assay [1] and less than 1 µM with hIRE1a.
For the molecule `CCc1cc(-c2ccc3c(NS(=O)(=O)Cc4ccccc4)ncnn23)cc2cnc(N[C@H]3CCCNC3)nc12` [Compound I-7, (S)—N-(7-(8-ethyl-2-(piperidin-3-ylamino)quinazolin-6-yl)pyrrolo[2,1-f][1,2,4]triazin-4-yl)-1-phenylmethanesulfonamide], the IC50 in assay [1] is less than 0.1 µM; in the assay with hIRE1a, less than 1 µM.
The corresponding values for `CCc1cc(-c2ccc3c(NS(=O)(=O)c4ccccc4Cl)ncnn23)cc2cnc(NC3CC4(COC4)C3)nc12` [Compound I-28, N-(7-(2-((2-oxaspiro[3.3]heptan-6-yl)amino)-8-ethylquinazolin-6-yl)pyrrolo[2,1-f][1,2,4]triazin-4-yl)-2-chlorobenzenesulfonamide] are 0.1 to 1 µM and greater than 10 µM.
On the same counts, the results for `CCc1cc(-c2ccc3c(NS(=O)(=O)c4ccccc4Cl)ncnn23)cc2cnc(N[C@H]3CC[C@H](O)CC3)nc12` [Compound I-29, 2-chloro-N-(7-(8-ethyl-2-(((1r,4r)-4-hydroxycyclohexyl)amino)quinazolin-6-yl)pyrrolo[2,1-f][1,2,4]triazin-4-yl)benzenesulfonamide] are less than 0.1 µM and 1 to 10 µM.
`CCc1cc(-c2ccc3c(NS(=O)(=O)c4ccccc4Cl)ncnn23)cc2cnc(N[C@@H]3CNC[C@H](C)C3)nc12` [Compound I-31]: the IC50 in assay [1] is less than 0.1 µM; with hIRE1a, less than 1 µM.
Take `CCc1cc(-c2ccc3c(NS(=O)(=O)Cc4cccc(F)c4F)ncnn23)cc2cnc(N[C@H]3CCCNC3)nc12` [Compound I-21, (S)-1-(2,3-difluorophenyl)-N-(7-(8-ethyl-2-(piperidin-3-ylamino)quinazolin-6-yl)pyrrolo[2,1-f][1,2,4]triazin-4-yl)methanesulfonamide]: the IC50 in assay [1] is less than 0.1 µM; with hIRE1a, less than 1 µM.
